≈ marks a conversion by molar mass, not a printed value.
Assays:
Staphylococcus aureus [1] = test: Antibacterial activity against methicillin-susceptible Staphylococcus aureus CMCC 2603 incubated for 18 hrs by broth microdilution method; format: functional; conditions: CMCC 2603, 18 h
[2] = Solubility of compound in distilled water after 24 hrs by HPLC analysis; format: physicochemical
Staphylococcus aureus [3] = test: Antibacterial activity against methicillin-susceptible Staphylococcus aureus ATCC 29213 incubated for 18 hrs by broth microdilution method; format: functional; conditions: ATCC 29213, 18 h
Pseudomonas aeruginosa = test: Antibacterial activity against Pseudomonas aeruginosa ATCC 27853 incubated for 18 hrs by broth microdilution method; format: functional; conditions: ATCC 27853, 18 h
Staphylococcus aureus [4] = test: Antibacterial activity against methicillin-susceptible Staphylococcus aureus ATCC 25923 incubated for 18 hrs by broth microdilution method; format: functional; conditions: ATCC 25923, 18 h
Staphylococcus aureus [5] = test: Antibacterial activity against methicillin-resistant Staphylococcus aureus ATCC 43300 incubated for 18 hrs by broth microdilution method; format: functional; conditions: ATCC 43300, 18 h
Staphylococcus aureus [6] = test: Antibacterial activity against methicillin-resistant Staphylococcus aureus ATCC 33591 incubated for 18 hrs by broth microdilution method; format: functional; conditions: ATCC 33591, 18 h
[7] = Cytotoxicity against HEK293A cells after 48 hrs by MTT assay; format: cell-based; conditions: Homo sapiens, HEK293-A
[8] = Octanol/water partition coefficient, log P of the compound by HPLC assay; format: physicochemical
[9] = Cytotoxicity against human L02 cells after 48 hrs by MTT assay; format: cell-based; conditions: L02, 48 h
Escherichia coli = test: Antibacterial activity against Escherichia coli ATCC 25922 incubated for 18 hrs by broth microdilution method; format: functional; conditions: ATCC 25922, 18 h
Staphylococcus aureus [10] = test: Antibacterial activity against methicillin-susceptible Staphylococcus aureus ATCC 6538 incubated for 18 hrs by broth microdilution method; format: functional; conditions: ATCC 6538, 18 h

| SMILES | MIC (Staphylococcus aureus [1]) [µg/mL] | solubility at 24 h [2] [µM] | MIC (Staphylococcus aureus [3]) [µg/mL] | MIC (Pseudomonas aeruginosa) [µg/mL] | MIC (Staphylococcus aureus [4]) [µg/mL] | MIC (Staphylococcus aureus [5]) [µg/mL] | MIC (Staphylococcus aureus [6]) [µg/mL] | IC50 [7] [µg/mL] | logP [8] | IC50 [9] [µg/mL] | MIC (Escherichia coli) [µg/mL] | MIC (Staphylococcus aureus [10]) [µg/mL] |
| --- | --- | --- | --- | --- | --- | --- | --- | --- | --- | --- | --- | --- |
| O=C1O[C@@H](CN2CCC(O)CC2)CN1c1ccc(-n2cc(-c3ccccn3)cn2)c(F)c1 | > 32 | 45.9 (≈ 20.1 µg/mL) | > 32 | > 32 | > 32 | > 32 | > 32 | > 400 | 1.63 | > 400 | > 32 | > 32 |
| O=C1O[C@@H](CN2CCOCC2)CN1c1ccc(-n2cc(-c3ccccn3)cn2)c(F)c1 | > 32 | 109 (≈ 46.2 µg/mL) | > 32 | > 32 | > 32 | > 32 | > 32 | > 400 | 2 | > 400 | > 32 | > 32 |
| O=C1O[C@@H](CN2CCN(CCO)CC2)CN1c1ccc(-n2cc(-c3ccccn3)cn2)c(F)c1 | > 32 | 125 (≈ 58.1 µg/mL) | > 32 | > 32 | > 32 | > 32 | > 32 | > 400 | 1.09 | > 400 | > 32 | > 32 |
| O=C(CF)NC[C@H]1CN(c2ccc(-n3cc(-c4ccccn4)cn3)c(F)c2)C(=O)O1 | 4 (≈ 9.68 µM) | 61.8 (≈ 25.5 µg/mL) | 4 (≈ 9.68 µM) | > 32 | 4 (≈ 9.68 µM) | 4 (≈ 9.68 µM) | 4 (≈ 9.68 µM) | > 400 | 1.29 | 106 (≈ 256 µM) | > 32 | 4 (≈ 9.68 µM) |
| COC(=O)NC[C@H]1CN(c2ccc(-n3cc(-c4ccccn4)cn3)c(F)c2)C(=O)O1 | 4 (≈ 9.72 µM) | 34.1 (≈ 14 µg/mL) | 4 (≈ 9.72 µM) | > 32 | 4 (≈ 9.72 µM) | 4 (≈ 9.72 µM) | 4 (≈ 9.72 µM) | 306 (≈ 744 µM) | 2.03 | 71 (≈ 173 µM) | > 32 | 4 (≈ 9.72 µM) |
| CCC(=O)NC[C@H]1CN(c2ccc(-n3cc(-c4ccccn4)cn3)c(F)c2)C(=O)O1 | 4 (≈ 9.77 µM) | 147 (≈ 60 µg/mL) | 4 (≈ 9.77 µM) | > 32 | 4 (≈ 9.77 µM) | 4 (≈ 9.77 µM) | 4 (≈ 9.77 µM) | 389 (≈ 950 µM) | 2.2 | 204 (≈ 498 µM) | > 32 | 4 (≈ 9.77 µM) |
| O=CNC[C@H]1CN(c2ccc(-n3cc(-c4ccccn4)cn3)c(F)c2)C(=O)O1 | 8 (≈ 21 µM) | 217 (≈ 82.8 µg/mL) | 8 (≈ 21 µM) | > 32 | 8 (≈ 21 µM) | 8 (≈ 21 µM) | 8 (≈ 21 µM) | > 400 | 1.19 | > 400 | > 32 | 8 (≈ 21 µM) |
| CN1CCN(C[C@H]2CN(c3ccc(-n4cc(-c5ccccn5)cn4)c(F)c3)C(=O)O2)CC1 | > 32 | 1690 (≈ 738 µg/mL) | > 32 | > 32 | > 32 | > 32 | > 32 | 70 (≈ 160 µM) | 2.2 | 70 (≈ 160 µM) | > 32 | > 32 |
| O=C1O[C@@H](CN2CCCCC2)CN1c1ccc(-n2cc(-c3ccccn3)cn2)c(F)c1 | > 32 | 219 (≈ 92.4 µg/mL) | 32 (≈ 75.9 µM) | > 32 | 32 (≈ 75.9 µM) | 32 (≈ 75.9 µM) | 32 (≈ 75.9 µM) | > 400 | 3.1 | > 400 | > 32 | 32 (≈ 75.9 µM) |
| O=C1O[C@@H](CSc2cccs2)CN1c1ccc(-n2cc(-c3ccccn3)cn2)c(F)c1 | > 32 | 8.5 (≈ 3.85 µg/mL) | > 32 | > 32 | > 32 | > 32 | > 32 | > 400 | 4.29 | > 400 | > 32 | > 32 |
| O=C1CNC(=O)N1C[C@H]1CN(c2ccc(-n3cc(-c4ccccn4)cn3)c(F)c2)C(=O)O1 | > 32 | 1630 (≈ 713 µg/mL) | > 32 | > 32 | > 32 | > 32 | > 32 | > 400 | 1.25 | > 400 | > 32 | > 32 |
| O=C1O[C@@H](CNC(=O)C(F)(F)F)CN1c1ccc(-n2cc(-c3ccccn3)cn2)c(F)c1 | > 64 | 114 (≈ 51 µg/mL) | > 64 | > 32 | > 64 | > 64 | > 64 | > 400 | ≥ 1.78 | > 400 | > 32 | > 64 |
| CN(CCC#N)C[C@H]1CN(c2ccc(-n3cc(-c4ccccn4)cn3)c(F)c2)C(=O)O1 | > 32 | 64.5 (≈ 27.1 µg/mL) | > 32 | > 32 | > 32 | > 32 | > 32 | > 400 | 1.9 | > 400 | > 32 | > 32 |
| CONC(=O)[C@H]1CN(c2ccc(-n3cc(-c4ccccn4)cn3)c(F)c2)C(=O)O1 | 16 (≈ 40.3 µM) | 78.1 (≈ 31 µg/mL) | 16 (≈ 40.3 µM) | > 32 | 16 (≈ 40.3 µM) | 16 (≈ 40.3 µM) | 16 (≈ 40.3 µM) | > 400 | ≥ 1.58 | > 400 | > 32 | 16 (≈ 40.3 µM) |
| CN(CCO)C[C@H]1CN(c2ccc(-n3cc(-c4ccccn4)cn3)c(F)c2)C(=O)O1 | > 32 | 669 (≈ 275 µg/mL) | > 32 | > 32 | > 32 | > 32 | > 32 | 367 (≈ 892 µM) | 1.44 | 134 (≈ 326 µM) | > 32 | > 32 |
| CCNC(=O)NC[C@H]1CN(c2ccc(-n3cc(-c4ccccn4)cn3)c(F)c2)C(=O)O1 | 8 (≈ 18.8 µM) | 222 (≈ 94.1 µg/mL) | 8 (≈ 18.8 µM) | > 32 | 8 (≈ 18.8 µM) | 8 (≈ 18.8 µM) | 8 (≈ 18.8 µM) | 29 (≈ 68.3 µM) | 2.45 | > 400 | > 32 | 8 (≈ 18.8 µM) |
| O=C1CSC(=O)N1C[C@H]1CN(c2ccc(-n3cc(-c4ccccn4)cn3)c(F)c2)C(=O)O1 | > 32 | 26.9 (≈ 12.2 µg/mL) | > 32 | > 32 | > 32 | > 32 | > 32 | 283 (≈ 624 µM) | 2.18 | > 400 | > 32 | > 32 |
| O=C1O[C@@H](CO)CN1c1ccc(-n2cc(-c3ccccn3)cn2)c(F)c1 | – | 56.4 (≈ 20 µg/mL) | – | – | – | – | – | > 400 | 1.67 | 59 (≈ 167 µM) | – | – |
| NC(=O)[C@H]1CN(c2ccc(-n3cc(-c4ccccn4)cn3)c(F)c2)C(=O)O1 | 16 (≈ 43.6 µM) | 27.2 (≈ 9.99 µg/mL) | 16 (≈ 43.6 µM) | > 32 | 16 (≈ 43.6 µM) | 16 (≈ 43.6 µM) | 16 (≈ 43.6 µM) | 152 (≈ 414 µM) | 1.59 | 119 (≈ 324 µM) | > 32 | 16 (≈ 43.6 µM) |
| CS(=O)(=O)NC[C@H]1CN(c2ccc(-n3cc(-c4ccccn4)cn3)c(F)c2)C(=O)O1 | > 64 | 2.3 (≈ 0.992 µg/mL) | > 64 | > 32 | > 64 | > 64 | > 64 | 314 (≈ 728 µM) | 1.38 | > 400 | > 32 | > 64 |
| CCN1CCN(C[C@H]2CN(c3ccc(-n4cc(-c5ccccn5)cn4)c(F)c3)C(=O)O2)CC1 | > 32 | 706 (≈ 318 µg/mL) | > 32 | > 32 | > 32 | > 32 | > 32 | 99 (≈ 220 µM) | 2.19 | 99 (≈ 220 µM) | > 32 | > 32 |
| O=C1CCC(=O)N1C[C@H]1CN(c2ccc(-n3cc(-c4ccccn4)cn3)c(F)c2)C(=O)O1 | > 32 | 45.3 (≈ 19.7 µg/mL) | > 32 | > 32 | > 32 | > 32 | > 32 | > 400 | 1.58 | > 400 | > 32 | > 32 |
| O=C1O[C@@H](Cn2ccnn2)CN1c1ccc(-n2cc(-c3ccccn3)cn2)c(F)c1 | 4 (≈ 9.87 µM) | 247 (≈ 100 µg/mL) | 4 (≈ 9.87 µM) | > 32 | 4 (≈ 9.87 µM) | 4 (≈ 9.87 µM) | 4 (≈ 9.87 µM) | 225 (≈ 555 µM) | 2 | 49 (≈ 121 µM) | > 32 | 4 (≈ 9.87 µM) |
| CC(=O)OC[C@H]1CN(c2ccc(-n3cc(-c4ccccn4)cn3)c(F)c2)C(=O)O1 | > 32 | 373 (≈ 148 µg/mL) | > 32 | > 32 | > 32 | > 32 | > 32 | > 400 | 2.09 | > 400 | > 32 | > 32 |
